Laboratory results taken from patent US20230049350A1, “COMPOUNDS FOR TREATING BRAIN CANCER” (Purdue Pharmaceutical Products L.P., priority 2014, published 2023).

Legend:
U251 = experiment: Clonogenic survival with radiotherapy, U251; type: cell-based; details: 2.5 µM or 5 µM, 24 hr, plus radiotherapy, FIG. 10
Procedure: (§1) In a first experiment, U251, U87 and T98G cell lines were treated with radiotherapy alone or with radiotherapy and EDO-S101.
(§2) For clonogenic survival, exponentially growing cells (70% confluence) were cultured in regular media and treated with EDO-S101 at the appropriate concentrations, or vehicle (final DMSO concentration of 0.1%) for 24 hr. Tumour cell irradiation was done using a 6 MV linear accelerator Elekta Synergy using a clinically calibrated irradiation field of 30 × 30 cm. Two cm thick plates of perspex were positioned above and below the cell culture flasks completely filled with medium to compensate for the build-up effect. Non-irradiated controls were handled identically to the irradiated cells with the exception of the radiation exposure. […] Colonies containing more than 50 cells were counted. The plating efficiency (PE) was calculated as the number of colonies observed/the number of cell plated. The surviving fraction was calculated as the number of colonies formed in the treated dishes compared with the number formed in the control. The survival curves were analyzed using SPSS (Chicago, IL) statistical software by means of a fit of the data by a weighted, stratified, linear regression, according to the linear-quadratic formula: S(D)/S(O)=exp-(aD+bD2).

T98G = experiment: Clonogenic survival with radiotherapy, T98G; type: cell-based; details: 2.5 µM or 5 µM, 24 hr, plus radiotherapy, FIG. 10
Procedure: as §1, §2

U87 tumours = experiment: Mice with implanted U87 tumours, time to progression (Example 3); type: in vivo; details: 60 mg/kg iv days 1, 8 and 15, FIG. 9
Procedure: (§3) The above procedure was followed in similar manner using the cell lines U87G and U251G. Once again, EDO-S101 (60 mg/kg) was administered intravenously via the tail vein, but in these experiments it was administered at days 1, 8 and 15. In place of bendamustime, TMZ was administered as a comparison at 16 mg/kg for 5 consecutive days, po. The mice were sacrificed after 28 days.

U251 tumours = experiment: Mice with implanted U251 tumours, time to progression (Example 3); type: in vivo; details: 60 mg/kg iv days 1, 8 and 15, FIG. 8
Procedure: as §3

U87 = experiment: Clonogenic survival with radiotherapy, U87; type: cell-based; details: 2.5 µM or 5 µM, 24 hr, plus radiotherapy, FIG. 10
Procedure: as §1, §2

[1] = system: twelve tested GBM cell lines; experiment: GBM cell line viability, panel of twelve tested cell lines; type: cell-based; details: in combination with 500 nM vorinostat
Procedure: In vitro experiments were devised in which a series of GBM cell lines representative for MGMT negative and MGMT positive tumour cells were used.
Compounds: 1-100 µM EDO-S101, 1-50 µM temozolomide (TMZ), 1-50 µM temozolomide + 500 nM vorinostat, 1-40 µM bendamustine, 1-40 µM bendamustine and 500 nM vorinostat.
Twelve glioblastoma cell lines representing grade III and IV gliomas and with different expression of MGMT, drug and radiotherapy sensitivity and five patient derived glioblastoma stem, cells were used (see above). […] Spheres were counted 5 days after treatment under an inverted microscope at ×4 magnification. A sphere was counted if it had at least 15 cells.
Cells were seeded at a density of 2 × 10^4 cells/ml in 24 well plates. […] Cells trypsinized and resuspended in 1.0 ml of saline were counted using the NucleoCounterTM NC-100 (automated cell counter systems, Chemotec, Cydevang, DK) in order to evaluate cell viability. […] IC50 values were calculated by the GraFit method (Erithacus Software Limited, Staines, UK). Cell viability was measured with the 3-(4,5 dimethylthiazol-2-yl)-2,5-diphenyl tetrazolium bromide (MTT; Sigma-Aldrich) assay.
IC50 and IC20 values for all twelve cell lines against bendamustine and vorinostat were also determined as described above. […]

Cn1c(CCCCCCC(=O)NO)nc2cc(N(CCCl)CCCl)ccc21 [EDO-S101]
% survival rate (surviving fraction) with radiotherapy versus radiotherapy alone (U251): considerably reduced | % survival rate (surviving fraction) with radiotherapy versus radiotherapy alone (T98G): considerably reduced | time to progression (TTP) versus control and TMZ (U87 tumours): significantly longer | time to progression (TTP) versus control and TMZ (U251 tumours): significantly longer | % survival rate (surviving fraction) with radiotherapy versus radiotherapy alone (U87): considerably reduced

Cn1c(CCCC(=O)O)nc2cc(N(CCCl)CCCl)ccc21 [bendamustine]
sensitivity of all cell lines (FIG. 5) [1]: highly sensitive except Mz54 and T98G
